Source: ChEMBL document CHEMBL3112478, “Total synthesis of thiaplakortone a: derivatives as metabolically stable leads for the treatment of malaria” (ACS Med Chem Lett, 2014)
pIC50: −log10 of the molar value.

How the values were obtained:
NFF = test: Cytotoxicity against human NFF after 72 hrs by SRB assay; type: cell-based
Plasmodium falciparum [1] = test: Antimalarial activity against chloroquine and mefloquine-resistant Plasmodium falciparum Dd2 assessed as growth inhibition; type: functional
[2] = Intrinsic clearance in human liver microsomes at 1 uM after 60 mins by LC-MS/MS analysis; type: ADME; conditions: read-out: CLH
[3] = Selectivity index, ratio of IC50 for human NFF to IC50 for chloroquine-sensitive Plasmodium falciparum 3D7
[4] = Selectivity ratio of IC50 for chloroquine-sensitive Plasmodium falciparum 3D7 to IC50 for chloroquine and mefloquine-resistant Plasmodium falciparum Dd2; type: functional
[5] = Solubility of the compound in phosphate buffered saline under acidic condition; type: physicochemical; conditions: buffer
Plasmodium falciparum [6] = test: Antimalarial activity against chloroquine-sensitive Plasmodium falciparum 3D7 assessed as growth inhibition; type: functional, organism-based
Mus musculus [7] = test: Toxicity in Swiss mouse assessed as ruffled coat at 8 mg/kg administered for 4 days; type: organism-based; set-up: dose 8 mg/kg; conditions: in vivo, 96 h
[8] = Solubility of the compound in phosphate buffered saline under neutral condition; type: physicochemical; conditions: buffer
[9] = Half life in human liver microsomes at 1 uM after 60 mins by LC-MS/MS analysis; type: ADME
Mus musculus [10] = test: Toxicity in Swiss mouse assessed as lethargy at 16 mg/kg measured up to 2 hrs post compound administration; type: organism-based; set-up: dose 16 mg/kg; conditions: in vivo
Mus musculus [11] = test: Toxicity in Swiss mouse assessed as ruffled coat at 16 mg/kg measured up to 2 hrs post compound administration; type: organism-based; set-up: dose 16 mg/kg; conditions: in vivo
Mus musculus [12] = test: Toxicity in Swiss mouse assessed as whole body tremor at 8 mg/kg administered for 4 days measured after 1 to 2 hrs of each dose; type: organism-based; set-up: dose 8 mg/kg; conditions: in vivo
[13] = Selectivity index, ratio of IC50 for human NFF to IC50 for chloroquine and mefloquine-resistant Plasmodium falciparum Dd2
Plasmodium falciparum [14] = test: Antimalarial activity against chloroquine-sensitive Plasmodium falciparum 3D7 assessed as [3H]-hypoxanthine incorporation after 48 hrs by liquid scintillation counting analysis; type: functional, organism-based
[15] = Intrinsic clearance in mouse liver microsomes at 1 uM after 60 mins by LC-MS/MS analysis; type: ADME, Microsome; conditions: read-out: CLH
Mus musculus [16] = test: Toxicity in Swiss mouse assessed as whole body tremor at 16 mg/kg measured up to 2 hrs post compound administration; type: organism-based; set-up: dose 16 mg/kg; conditions: in vivo
[17] = Half life in mouse liver microsomes at 1 uM after 60 mins by LC-MS/MS analysis; type: ADME, Microsome
Plasmodium falciparum [18] = test: Antimalarial activity against chloroquine and mefloquine-resistant Plasmodium falciparum Dd2 assessed as [3H]-hypoxanthine incorporation after 48 hrs by liquid scintillation counting analysis; type: functional
Mus musculus [19] = test: Toxicity in Swiss mouse assessed as difficulty in movement at 4 to 8 mg/kg; type: organism-based; set-up: dose 4-8 mg/kg; conditions: in vivo
Mus musculus [20] = test: Toxicity in Swiss mouse assessed as whole body tremor at 4 to 8 mg/kg; type: organism-based; set-up: dose 4-8 mg/kg; conditions: in vivo
Mus musculus [21] = test: Toxicity in Swiss mouse assessed as swollen conjuctiva of eyes at 4 to 8 mg/kg; type: organism-based; set-up: dose 4-8 mg/kg; conditions: in vivo
Mus musculus [22] = test: Toxicity in Swiss mouse assessed as orange urine at 4 to 8 mg/kg; type: organism-based; set-up: dose 4-8 mg/kg; conditions: in vivo
Mus musculus [23] = test: Toxicity in Swiss mouse assessed as whole body tremor at 4 to 8 mg/kg measured up to 15 mins post compound administration; type: organism-based; set-up: dose 4-8 mg/kg; conditions: in vivo, 0.25 h
Mus musculus [24] = test: Toxicity in Swiss mouse assessed as panting at 4 to 8 mg/kg measured up to 15 mins post compound administration; type: organism-based; set-up: dose 4-8 mg/kg; conditions: in vivo, 0.25 h

## CCN(CC)CCCC(C)Nc1ccnc2cc(Cl)ccc12 (configuration not stated) [CHLOROQUINE]
NFF
  pIC50: 4.34

## Cl.NCCc1c[nH]c2c1C(=O)C1=C(NC=CS1(=O)=O)C2=O
Plasmodium falciparum [1]
  pIC50: 8.18
[2]
  microsomal CLint at 1 µM: 46 µL/min/mg
[3]
  Ratio IC50: 14
[4]
  Ratio IC50: 4.3
[5]
  solubility: soluble
Plasmodium falciparum [6]
  pIC50: 7.29
Mus musculus [7]
  Activity: Toxic
[8]
  solubility: soluble
[9]
  half-life at 1 µM: 0.617 h
Mus musculus [10]
  Activity: Toxic
Mus musculus [11]
  Activity: Toxic
NFF
  pIC50: 5.82
Mus musculus [12]
  Activity: Toxic
[13]
  Ratio IC50: 60
Plasmodium falciparum [14]
  pIC50: 6.98
[15]
  microsomal CLint at 1 µM: 68 µL/min/mg
Mus musculus [16]
  Activity: Toxic
[17]
  half-life at 1 µM: 0.417 h
Plasmodium falciparum [18]
  pIC50: 7.62

## CNCCc1c[nH]c2c1C(=O)C1=C(NC=CS1(=O)=O)C2=O.Cl
[2]
  microsomal CLint at 1 µM: 17 µL/min/mg
[3]
  Ratio IC50: 9
[4]
  Ratio IC50: 3.4
[5]
  solubility: soluble
[8]
  solubility: soluble
[9]
  half-life at 1 µM: 1.67 h
NFF
  pIC50: 5.83
[13]
  Ratio IC50: 31
Plasmodium falciparum [14]
  pIC50: 6.80
[15]
  microsomal CLint at 1 µM: 11 µL/min/mg
[17]
  half-life at 1 µM: 2.52 h
Plasmodium falciparum [18]
  pIC50: 7.33

## CNCCc1cn(C)c2c1C(=O)C1=C(NC=CS1(=O)=O)C2=O.Cl
[2]
  microsomal CLint at 1 µM: < 7 µL/min/mg
[3]
  Ratio IC50: 17
[4]
  Ratio IC50: 1.7
[5]
  solubility: soluble
Mus musculus [19]
  Activity: Toxic
[8]
  solubility: soluble
[9]
  half-life at 1 µM: > 4.17 h
NFF
  pIC50: 5.64
[13]
  Ratio IC50: 29
Plasmodium falciparum [14]
  pIC50: 6.86
Mus musculus [20]
  Activity: Toxic
[15]
  microsomal CLint at 1 µM: < 7 µL/min/mg
[17]
  half-life at 1 µM: > 4.17 h
Mus musculus [21]
  Activity: Toxic
Mus musculus [22]
  Activity: Toxic
Plasmodium falciparum [18]
  pIC50: 7.10

## Cl.Cn1cc(CCN)c2c1C(=O)C1=C(C2=O)S(=O)(=O)C=CN1
[2]
  microsomal CLint at 1 µM: < 7 µL/min/mg
[3]
  Ratio IC50: 18
[4]
  Ratio IC50: 1.7
[5]
  solubility: soluble
Mus musculus [23]
  Activity: Toxic
[8]
  solubility: soluble
[9]
  half-life at 1 µM: > 4.17 h
NFF
  pIC50: 5.64
[13]
  Ratio IC50: 40
Plasmodium falciparum [14]
  pIC50: 6.89
[15]
  microsomal CLint at 1 µM: < 7 µL/min/mg
[17]
  half-life at 1 µM: > 4.17 h
Mus musculus [24]
  Activity: Toxic
Plasmodium falciparum [18]
  pIC50: 7.24

## Cn1cc(CCN)c2c1C(=O)C1=C(NC=CS1(=O)=O)C2=O
[3]
  Ratio IC50: 32
NFF
  pIC50: 4.88
[13]
  Ratio IC50: 81
Plasmodium falciparum [14]
  pIC50: 6.38
Plasmodium falciparum [18]
  pIC50: 6.79
